From patent US20150038333A1, “PLANT PROTECTIVE COMPOSITION CONTAINING ALPHA-HYDROXY ACIDS” (HELMHOLTZ ZENTRUM MÜNCHEN DEUTSCHES FORSCHUNGSZENT -RUN FÜR …, priority 2011, published 2015)

Legend:
[1] = biological target: T1, UGT76B1 (Arabidopsis thaliana, UniProt Q9C768); assay: In vitro glucosyltransferase activity assay of recombinant UGT76B1; assay type: biochemical; conditions: 0.5 mM aglycone, 5 mM UDP-glucose, 1 hour at 30° C., analyzed by mass spectrometry
T1 construct: The UGT76B1 open reading frame was amplified with the same primers as used for the construction of the overexpression lines; made in house
T1 sequence (Q9C768 1-447): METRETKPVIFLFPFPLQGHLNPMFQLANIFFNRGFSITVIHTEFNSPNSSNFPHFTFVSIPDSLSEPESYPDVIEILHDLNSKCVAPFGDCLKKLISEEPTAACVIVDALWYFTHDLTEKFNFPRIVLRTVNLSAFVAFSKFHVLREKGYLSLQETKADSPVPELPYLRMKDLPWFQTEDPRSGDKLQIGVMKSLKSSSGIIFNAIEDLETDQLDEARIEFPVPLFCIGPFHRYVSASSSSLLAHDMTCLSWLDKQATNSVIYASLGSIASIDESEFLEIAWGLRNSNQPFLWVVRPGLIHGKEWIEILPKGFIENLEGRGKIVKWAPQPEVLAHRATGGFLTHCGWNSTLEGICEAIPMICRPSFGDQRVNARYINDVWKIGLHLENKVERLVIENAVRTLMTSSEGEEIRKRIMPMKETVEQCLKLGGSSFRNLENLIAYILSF
From the text: A glutathione-S-transferase (GST)-UGT761 expression plasmid was constructed using pDEST15 (Invitrogen, Germany). The UGT76B1 open reading frame was amplified with the same primers as used for the construction of the overexpression lines. The recombinant protein was affinity-purified using a glutathione-coupled sepharose beads according to the manufacturer's instructions (GE Healthcare, Germany), concentrated by membrane filtration (Amicon Ultra-4; Millipore, Germany) and supplemented with 20% glycerol for storage at −20° C. (Messner et al., 2003). To analyze the UGT enzyme activity assay mixtures contained 0.1 M Tris-HCl (pH 7.5), 5 mM UDP-glucose, 0.5 mM aglycone and about 1 μg fusion protein in a final volume of 50 μL. After incubation for 1 hour at 30° C. the reaction was stopped by addition of 200 μL methanol and cleared by centrifugation. Reactions were diluted 1:50 in 70% methanol (except for valic acid, which was used without dilution) and analyzed on a API4000 mass spectrometer using direct injection into the electrospray source at a flow rate of […]. 150 Scans were accumulated for each measurement in dual ion monitoring mode, which was adjusted to monitor ions at nominal m/z ratios of the corresponding expected substrate and product peaks with a mass range of ±5 Da.

[2] = system: defence marker genes PR1, PDF1.2 and VSP2; assay: Defense marker gene expression in Col-0 plants after spraying with α-hydroxy-acid (RTqPCR); assay type: in vivo, Arabidopsis; conditions: for expression of defense marker genes (PR1 and PDF1.2): 4-week-old Col-0 plants, 24 h after treatment, 1 mM in water, preliminary, two biological replicates
Experimental: Rosette leaves of the indicated age were collected. Total RNA was isolated using the RNeasy Plant Mini Kit (Qiagen, Germany). RNA integrity and amount was analyzed by gel electrophoresis and by spectrophotometry. One microgram of total RNA was reverse transcribed using a SuperScript II reverse transcription-PCR kit (Invitrogen; Germany) according to the manufacturer's instructions. Gene-specific primer pairs were designed using the Primer Express 3.0 software. […] Real time quantification was performed using a 7500 real time PCR system (Applied Biosystems, Germany). Individual PCR reaction mixtures contained 4 μL of diluted cDNA, 10 μL of Sybr Green Mastermix (Thermo Scientific, Germany) and […] of each primer in a final volume of 20 μL. In all experiments, three biological replicates of each sample and two technical (PCR) replicates were performed. The amount of target gene was normalized over the abundance of the constitutive UBQ5 (At3g62250) and S16 (At5g18380, At2g09990) genes. The stability of the reference genes was tested and normalization was performed using GeNorm (Vandesompele et al., 2002). For RTqPCR of infected material, plants were infected as described below. Three biological replicates were analyzed; each consisted of six individually infected leaves. Plant material was harvested before infection and mock treatments (time point 0) and at the indicated time points after treatment. Each experiment was repeated with similar results.
For isoleucic acid treatment, 4-week-old plants were sprayed with 0.5 or 1 mM isoleucic acid (diluted in water) or only water for mock treatments. Plants were covered with a plexiglass lid until the surface of the leaves became dry. The fifth to eighth true leaves of each plant were harvested 24 hours after treatment. Four leaves from three independent plants were pooled for each replicate and analyzed by real-time PCR.

[3] = system: P. syringae pv. tomato DC3000 (avrRpm1) (Ps-avir); assay: Bacterial growth in Arabidopsis leaves of wild-type plants sprayed with ILA before infection; assay type: in vivo, Pseudomonas syringae
Experimental: FIG. 14: Direct effect of exogenously applied ILA on pathogen defence. Bacterial growth in Arabidopsis leaves of wild-type plants sprayed with water (blank) or 1 mM ILA (dotted) 24 h or 72 h before infection. Plants were inoculated with 5*10^5 cfu ml^−1 of Ps-avir and bacteria (cfu cm^−2) were quantified 0 and 3 days after inoculation. The graphs represent the means and standard deviations of three replicates.
Bacterial strains used in this study include Pseudomonas syringae pv. tomato DC3000 (Ps), P. syringae pv. tomato DC3000 (avrRpm1) (Ps-avir). Bacteria were grown overnight at 28° C. in King's B medium with appropriate antibiotics and diluted to 5*10^5 cfu mL^−1 with 10 mM MgCl2 for plant inoculation. Whole leaves of 5- to 6-week-old plants were infiltrated using a 1-mL syringe without a needle. Control plants were infiltrated with 10 mM MgCl2. Leaf discs from control treated and infected plants were harvested from inoculated leaves at 0, 1 and 3 d after infiltration. Bacterial growth was assessed as described previously (Katagiri et al., 2002). For each time point, three samples were made by pooling six leaf discs from three different treated plants.

[4] = system: pathogen responsive genes PR1 and PR10; assay: Induction of defence genes in barley leaves (semiquantitative PCR); assay type: in vivo, Hordeum vulgare; conditions: 2-week-old plants sprayed with 1 mM ILA, 48 h after treatment
Experimental: Total RNA was isolated using the RNeasy Plant Mini Kit (Qiagen, Germany). RNA integrity and amount was analyzed by gel electrophoresis and by spectrophotometry. One microgram of total RNA was reverse transcribed using a QuantiTect reverse transcription-PCR kit (Qiagen; Germany) according to the manufacturer's instructions. The following gene-specific primer pairs were kindly provided by Corina Vlot: EF1A_Hv_f (5′-[…]-3′) and EF1A_Hv_r (5′-[…]-3′) for the barley reference gene EF1A; PR1_Hv_f (5′-[…]-3′) and PR1_Hv_r (5′-[…]-3′) for barley PR1; Hv, PR10_Hv_f (5′-[…]-3′) and PR10_Hv_r (5′-[…]-3′) for barley PR10. PCR fragments were amplified using the indicated number of PCR cycles (FIG. 17) and separated on a 2% agarose gel containing ethidium bromide.
For ILA treatment in barley, 2-week-old plants were sprayed with either 1 mM ILA or 0.25 mg/ml BTH (benzothiadiazole/BION™), dissolved in water with 0.01% tween. For mock treatment, plants were sprayed only with water containing 0.01% tween. Leaves were harvested 48 hours after treatment and analyzed by semiquantitative PCR.

[5] = leaves of four-week-old Col-0 plants, 24 h after spraying isoleucic acid solution

`CCC(O)(CC)C(=O)O` [2-ethyl-2-hydroxybutyric acid] was tested, and the “glucosylation by recombinant UGT76B1” value [1] was “no activity”.

With `CCCCCCC(O)C(=O)O` (stereo not drawn) [2-hydroxy-octanoic acid] the “expression of defense marker genes (PR1 and PDF1.2)” value [2] was “can also induce”.

In the case of `CCC(C)C(O)C(=O)O` (stereo not drawn) [isoleucic acid, 2-hydroxy-3-methylpentanoic acid], the “glucosylation by recombinant UGT76B1” value [1] is reported as “glucosylated”, the “persistence of increased resistance after ILA spraying” value ([3]; 1 mM ILA sprayed 24 h or 72 h before Ps-avir infection) is reported as 1 to 3 days and the “bacterial growth compared with mock treatment” value ([3]; 1 mM ILA sprayed 24 h or 72 h before infection with 5*10^5 cfu ml^-1 Ps-avir, bacteria quantified 3 days after inoculation) is reported as “about four- to fivefold less bacterial growth”. For the same compound, the “PDF1.2 expression relative to mock (water) treatment” value [2, 5] was “tendency for induction”, the “VSP2 expression relative to mock (water) treatment” value [2, 5] was “only marginally suppressed” and the “PR1 expression relative to mock (water) treatment” value ([2]; leaves of four-week-old Col-0 plants, 24 h after spraying isoleucic acid solution (0.5 or 1 mM)) was “more than tenfold induced”. For the same compound, the “PR1 transcript level in barley” value [4] was “induces” and the “PR10 transcript level in barley” value [4] was “induces”.

In the case of `CC(C)[C@H](O)C(=O)O` [valic acid, (S)-(+)-2-hydroxy-3-methylbutyric acid], the “glucosylation by recombinant UGT76B1” value [1] is reported as “able to glucosylate” and the “expression of defense marker genes (PR1 and PDF1.2)” value [2] is reported as “can also induce”.
